Measured values: patent US5079260A, “Method for treating inflammation and compounds and compositions suitable for use therein” (Nova Pharmaceutical Corporation, priority 1990, dated 1992)

Key:
[1] = tested on: Ear Edema Caused by Tetradecanoylphorbolacetate; experiment: Inhibition of Ear Edema Caused by Tetradecanoylphorbolacetate (I), Table 1; type: in vivo, CF-1 Mice; settings: i.p., 100 mg/kg, 30 min before irritant; ear thickness at 3 h
Description: Such inflammatory agents typically include tetradecanoylphorbolacetate, arachidonic acid, xylene, capsaicin, oxazolone, carrageenan and the like. The reverse passive Arthus test offers another measure of the compound's utility in preventing an inflammatory response (Chang et al, Eur. J. Pharm. 69:155-164 (1981)). Test compounds are typically administered intraperitoneally or topically. For intraperitoneal administration, the test compound can be given in dimethyl sulfoxide or in 0.5% methylcellulose 30 minutes prior to administration of the irritant. For topical administration, the test compound can be dissolved in, for example, acetone, ethanol or dimethyl sulfoxide and applied about 15 minutes prior to application of the irritant. Results can be expressed as the percent decrease in swelling in the compound-treated animals as compared to control animals that receive only the irritant.
Inhibition of Ear Edema Caused by Tetradecanoylphorbolacetate (I)
CF-1 Mice, 25-30 g body weight, six animals per group, were used. Test compounds (compounds of Formula I where X is oxygen, R3, R4, A and B are hydrogen and Q is as indicated in Table 1) were administered intraperitoneally (100 mg/kg) or topically as follows. For intraperitoneal administration, the test compound was dissolved in dimethyl sulfoxide or 0.5% methylcellulose and 100 μl was injected 30 minutes prior to irritant (100 mg/kg, i.p.). For topical administration, the test compound was dissolved in either acetone, ethanol or dimethyl sulfoxide and 5 μl (100 μg) applied to the upper surface (1 cm^2) of the ear and an additional 5 μl (100 μg) applied to the lower surface (1 cm^2) of the ear fifteen minutes prior to application of the irritant. A solution of the irritant, tetradecanoylphorbolacetate, 200 μg/ml, was added to the surface of the ear, 5 μl added to the upper surface and 5 μl to the lower surface. After three hours, the thickness of the ear was measured to 0.01 mm by a micrometer with loose drag positioned at the lateral-most edge of the mid-point of the pinna. Data were calculated as the inhibition by the test compound of increased ear thickness compared to control animals receiving only the irritant.

[2] = tested on: Ear Edema Caused By Tetradecanoylphorbol Acetate; experiment: Inhibition of Ear Edema Caused by Tetradecanoylphorbol Acetate (II), Table 7; type: in vivo, CF-1 Mice; settings: i.p., 3 h
Method: Inhibition of Ear Edema Caused by Tetradecanoylphorbol Acetate (II)
CF-1 Mice, 25-30 g body weight, six animals per group were used. Test compounds were administered intraperitoneally or topically as follows. For intraperitoneal administration, the test compound was dissolved in dimethyl sulfoxide or 0.5% methylcellulose and 100 microliters was injected 30 minutes prior to irritant (100 mg/kg, i.p.). […] A solution of the irritant, tetradecanoylphorbol acetate, 200 μg/mL, was added to the surface of the ear, 5 μL to the upper surface and 5 μL to the lower surface. After three hours, the thickness of the ear was measured to 0.01 mm by a micrometer with loose drag, positioned at the lateral-most edge of the mid-point of the pinna. Data were calculated as the inhibition of increased ear thickness compared to control animals receiving only the irritant.

[3] = tested on: Ear Edema Caused by Arachidonic Acid; experiment: Inhibition of Ear Edema Caused by Arachidonic Acid (II), Table 8; type: in vivo, CF-1 mice; settings: i.p., sixty minutes
Method: Inhibition of Ear Edema Caused by Arachidonic Acid (II)
CF-1 mice, 25-30 g body weight, six animals per group, were used. The requisite amount of the test compound was dissolved is dimethyl sulfoxide or 0.5% methylcellulose and 100 μL of the solution was injected intraperitoneally 30 minutes prior to the administration of 100 mg/kg of arachidponic acid. A solution of this irritant, b 100 mg/mL in ethanol, was applied to the surface of the ear, 5 μL to the upper surface and 5 μL to the lower surface. After sixty minutes, the thickness of the ear was measured to 0.01 mm by a micrometer with the loose drag positioned at the lateral-most edge of the mid-point of the pinna. Data were calculated as the percent inhibityion by the test compound of increased ear thickness compared to control animals recieveing only the irritant.

[4] = tested on: Ear Edema Caused by Xylene; experiment: Inhibition of Ear Edema Caused by Xylene (II), Table 9; type: in vivo, CF-1 mice; settings: i.p., 2 h
Method: Inhibition of Ear Edema Caused by Xylene (II)
CF-1 mice, 25-30 g body weight, six animals per group, were used. The requisite amount of the test compound was dissolved is dimethyl sulfoxide or 0.5% methylcellulose and 100 μL of the solution was injected intraperitoneally 30 minutes prior to the administration the irritant. The irritant xylene was applied to the surface of the ear, 20 μL to the upper surface and 20 μL to the lower surface, After two hours, the thickness of the ear was measured to 0.01 mm by a micrometer with the loose drag positioned at the lateral-most edge of the mid-point of the pinna. Data were calculated as the percent inhibition by the test compound of increased ear thickness compared to control animals receiving only the irritant.

[5] = tested on: Ear Edema Caused by Oxazolone; experiment: Inhibition of Ear Edema Caused by Oxazolone (II), Table 10; type: in vivo, CF-1 mice; settings: i.p., 24 h
Method: Inhibition of Ear Edema Caused by Oxazolone (II)
CF-1 mice, 25-30 g body weight, five to six animals per group were used. The mice were sensitized to the irritant two weeks prior to the test by dribbling 100 μL of a 3% solution of oxazolone in acetone onto the abdominal skin of the animal. Test compounds were administered intraperitoneally as follows. […] The irritant, 3% oxazolone in acetone, was added to the surface of the ear, 5 μL added to the upper surface and 5 μL added to the lower surface. After twenty four hours, the thickness of the ear was measured to 0.01 mm by a micrometer with loose drag, positioned at the lateral-most edge of the mid-point of the pinna. Data were calculated as the inhibition of increased ear thickness compared to control animals' receiving only the irritant.

[6] = tested on: Reverse Passive Artus Reaction; experiment: Reverse Passive Artus Reaction (II), Table 11; type: in vivo, Male CD rats; settings: inhibition of blueing; i.p., 100 mg/kg
Method: Reverse Passive Artus Reaction (II) Male CD rats weighing between 200 and 250 g were used. […] The animals were anesthetized inhalationally with isoflurane and then injected through the penile vein with 1 mL of a solution of 2.5 mg of Evan's blue dye and 5.0 mg of human serum albumin in 1 mL of saline. This treatment was followed immediately by intracutaneous injections of 0.03 mL of anti-human albumin diluted to contain 3.65 mg of antibody at 3 sites along the midline back. Anesthesia was terminated and after three hours, the animals were sacrificed. The skin was removed and the blue stained areas cut out. The skin patches were soaked overnight in stoppered tubes containing 1 mL of 1 N potassium hydroxide at 37° C. Then 9 mL of a mixture of five parts of a 0.6 N phosphoric acid and thirteen parts of acetone were added to the tubes. The tube contents were agitated and centrifuged, and the absorbance measured at 620 nm. The data were calculated as inhibition of blueing by test compound compared to control animals receiving only antigen and antibody.

SMILES | % Inhibition Intraperitoneal [1] | % Inhibition Intraperitoneal ([2]; 10 mg/kg) | % Inhibition Intraperitoneal ([2]; 30 mg/kg) | % Inhibition Intraperitoneal ([3]; 10 mg/kg) | % Inhibition Intraperitoneal ([3]; 30 mg/kg) | % Inhibition Intraperitoneal ([3]; 100 mg/kg) | % Inhibition ([4]; 10 mg/kg) | % Inhibition ([4]; 30 mg/kg) | % Inhibition ([4]; 100 mg/kg) | % Inhibition Intraperitoneal ([5]; 10 mg/kg) | % Inhibition Intraperitoneal ([5]; 30 mg/kg) | % Inhibition Intraperitoneal ([5]; 100 mg/kg) | % Inhibition Intraperitoneal [6] | % Inhibition Intraperitoneal ([2]; 100 mg/kg)
NCCCC[C@H](N)C(=O)O [L-Lysine] | 14% |  |  |  |  |  |  |  |  |  |  |  |  | 
CCCC[C@H](NC(=O)OCC1c2ccccc2-c2ccccc21)C(=O)O [NPC 15667, N-[9H-(Fluorenyl-9-ylmethoxy)carbonyl]-L-norleucine] |  | -80% | 72% | 7% | 57% | 65% | 22% | 57% | 80% | 13% | 15% | 71% | 63% | 
Cc1ccc2c(c1)C(COC(=O)N[C@@H](CC(C)C)C(=O)O)c1cc(C)ccc1-2 [NPC 15669, N-{[9H-(2,7-Dimethylfluoren-9-yl)methoxy]-carbonyl}-L-leucine] |  | 43% | 27% | 12% | 22% | 60% | 12% | 22% | 60% | -40% | 84% | 84% | 60% | 133%
Cc1ccc2c(c1)C(CCC(=O)N[C@@H](CC(C)C)C(=O)O)c1ccccc1-2 (stereo partly drawn) [NPC 15671, N-{9H-[3-(2-Methylfluoren-9-yl)propionyl]}-L-leucine] |  | 41% | 31% | 40% | 19% | 56% | 6% | 10% | 18% | 5% | 20% | 69% | 13% | 66%
COCc1cccc2c1C(COC(=O)N[C@@H](CC(C)C)C(=O)O)c1ccccc1-2 (stereo partly drawn) [NPC 15673, N-{[9H-(1-Methoxymethylfluoren-9-yl)methoxy]carbonyl}-L-leucine] |  | 0% | 33% | 24% | 27% | 58% | 20% | 26% | 29% | 0% | 12% | 18% | 46% | 60%
CC(C)(C)C[C@H](NC(=O)OCC1c2ccccc2-c2ccccc21)C(=O)O [NPC 15676, N-[(9H-Fluoren-9-ylmethoxy)carbonyl]-L--neopentylglycine quarter hydrate] |  | 0% | 20% | 20% | 44% | 79% | 26% | 12% | 44% | 0% | 4% | 50% | 82% | 16%
CC(C)(C)[C@H](NC(=O)CCC1c2ccccc2-c2ccccc21)C(=O)O [NPC 15685, N-[3-(9H-Fluoren-9-yl)propionyl]-L-tert-leucine, quarter hydrate] |  | 0% | 16% | 44% | 61% | 69% | 5% | 23% | 18% | 0% | 30% | 30% | 42% | 67%
Cc1cccc2c1C(CCC(=O)N[C@H](C(=O)O)C(C)(C)C)c1ccccc1-2 (stereo partly drawn) [NPC 15885, N-{9H-[3-(1-Methylfluoren-9-yl)propionyl]}-L-tert-leucine, quarter hydrate] |  | 70% | 77% | 52% | 71% | 79% | 39% | 49% | 48% | 1% | 8% | 36% | 49% | 80%
CC(C)(SCc1ccccc1)[C@@H](NC(=O)OCC1c2ccccc2-c2ccccc21)C(=O)O [NPC 15953, S-Benzyl-β,β-dimethyl-N-[9H-(fluoren-9-ylmethoxy)carbonyl]-D-cystein] |  | 64% | 87% | 46% | 66% | 60% | 46% | 66% | 60% | 0% | 28% | 79% | 68% | 95%
